Here are results for 21 compounds from PubChem BioAssay AID336 (DTP/NCI, 2004).

The structures appear in SMILES notation. Several values for one entry are separate records, joined by “and”; a condition that tells them apart may be missing. Identical values can stand only once. Toxic doses and inconclusive results are not listed.

The test concerns BDF1 mice, P388/VCR leukemia ip, median survival T/C. Put plainly: NCI In Vivo Anticancer Drug Screen. Data for tumor model P388 Leukemia resistant to Vincristine; NSC 67574 (intraperitoneal) in B6D2F1 (BDF1) mice. The following applies: endpoint: median survival time, higher = longer survival. The procedure: The antitumor activity of compounds was measured in mice bearing transplantable tumors. Survival or tumor size were measured and the results are expressed as the measurement made in the treated group (T) divided by the measurement made in the vehicle treated control group (C). The tumor model used in this assay is P388 Leukemia resistant to Vincristine; NSC 67574 (intraperitoneal) in B6D2F1 (BDF1) mice

Setting [1] is: dose: 6.25 mg/kg/injection, schedule: Q01DX010 (ip), vehicle: saline.
Setting [2] is: dose: 5.0 mg/kg/injection, schedule: Q01DX010 (ip), vehicle: saline.
Setting [3] is: dose: 16.0 mg/kg/injection, schedule: Q01DX010 (ip), vehicle: saline.
The mark [4] stands for this setting: dose: 32.0 mg/kg/injection, schedule: Q01DX010 (ip), vehicle: saline.
Setting [5] is: dose: 64.0 mg/kg/injection, schedule: Q01DX010 (ip), vehicle: saline.
[6] abbreviates: dose: 10.0 mg/kg/injection, schedule: Q01DX010 (ip), vehicle: saline.
Where [7] appears, read: dose: 20.0 mg/kg/injection, schedule: Q01DX010 (ip), vehicle: saline.
Setting [8] is: dose: 12.0 mg/kg/injection, schedule: Q01DX010 (ip), vehicle: saline.
Setting [9] is: dose: 40.0 mg/kg/injection, schedule: Q01DX010 (ip), vehicle: saline.
The mark [10] stands for this setting: dose: 1.5 mg/kg/injection, schedule: Q01DX010 (ip), vehicle: saline.
Where [11] appears, read: dose: 3.0 mg/kg/injection, schedule: Q01DX010 (ip), vehicle: saline.
[12] abbreviates: dose: 6.0 mg/kg/injection, schedule: Q01DX010 (ip), vehicle: saline.
The mark [13] stands for this setting: dose: 8.0 mg/kg/injection, schedule: Q01DX010 (ip), vehicle: saline.

For the compound `CS(=O)(=O)OCCCCOS(C)(=O)=O`, the T/C was 88 % of control and 96 % of control under setting [1]; 92 % of control (dose: 25.0 mg/kg/injection, schedule: Q01DX010 (ip), vehicle: saline); 96 % of control (dose: 50.0 mg/kg/injection, schedule: Q01DX010 (ip), vehicle: saline).

Consider `O=C1N[C@@H]([C@H]2CC[C@H](Cl)CN2)C(=O)N[C@H]1[C@H]1CC[C@H](Cl)CN1`, for which the T/C by setting is: (dose: 2.4 mg/kg/injection, schedule: Q04DX003 (ip), vehicle: saline) 212 % of control; (dose: 4.0 mg/kg/injection, schedule: Q04DX003 (ip), vehicle: saline) 225 % of control.

In the case of `Cc1cc(N(CCCl)CCCl)ccc1N=Nc1ccccc1C(=O)O`, the T/C under setting [2] is 91 % of control and 112 % of control.

Turning to `C1CN1c1nc(N2CC2)nc(N2CC2)n1`, the T/C by setting is: (dose: 0.13 mg/kg/injection, schedule: Q01DX010 (ip), vehicle: saline) 88 % of control and 108 % of control; (dose: 0.5 mg/kg/injection, schedule: Q01DX010 (ip), vehicle: saline) 152 % of control and 228 % of control.

As for `O=C(Nc1ccc(C2=NCCN2)cc1)c1cc(Cl)cc(C(=O)Nc2ccc(C3=NCCN3)cc2)c1`, the T/C (dose: 140.0 mg/kg/injection, schedule: Q01DX010 (ip), vehicle: saline) was 100 % of control; the T/C (dose: 210.0 mg/kg/injection, schedule: Q01DX010 (ip), vehicle: saline) is 109 % of control; the T/C (dose: 315.0 mg/kg/injection, schedule: Q01DX010 (ip), vehicle: saline) is 100 % of control.

Regarding `CC(CN1CC(=O)NC(=O)C1)N1CC(=O)NC(=O)C1` (configuration not stated), the T/C was 120 % of control (dose: 108.0 mg/kg/injection, schedule: Q04DX003 (ip), vehicle: Klucel (hydroxypropylcellulose) (HPC)); 151 % of control (dose: 240.0 mg/kg/injection, schedule: Q04DX003 (ip), vehicle: Klucel (hydroxypropylcellulose) (HPC)); 174 % of control (dose: 300.0 mg/kg/injection, schedule: Q04DX003 (ip), vehicle: alkali diluted with saline); 180 % of control (dose: 400.0 mg/kg/injection, schedule: Q04DX003 (ip), vehicle: Klucel (hydroxypropylcellulose) (HPC)); 109 % of control (dose: 500.0 mg/kg/injection, schedule: Q04DX003 (ip), vehicle: alkali diluted with saline).

For `O=C(Nc1cccc(C(=O)Nc2ccc(C3=NCCN3)cc2)c1)c1ccc(C2=NCCN2)cc1`, where the note is “dose: 54.0 mg/kg/injection, schedule: Q01DX010 (ip), vehicle: saline”, the T/C is 104 % of control.

As for `O=CCC(O)C(O)C(O)CO` (configuration not stated), the T/C reads like this: (dose: 125.0 mg/kg/injection, schedule: Q01DX010 (ip), vehicle: saline) 88 % of control; (dose: 250.0 mg/kg/injection, schedule: Q01DX010 (ip), vehicle: saline) 88 % of control and 92 % of control; (dose: 500.0 mg/kg/injection, schedule: Q01DX010 (ip), vehicle: saline) 92 % of control and 100 % of control.

As for `CCCCn1cnc2c(=S)nc[nH]c21`, the T/C is 107 % of control under setting [3], 96 % of control under setting [4] and 100 % of control under setting [5].

In the case of `Nc1nc(=S)c2[nH]cnc2[nH]1`, the T/C is 165 % of control (dose: 1.25 mg/kg/injection, schedule: Q01DX010 (ip), vehicle: other); 103 % of control and 107 % of control (dose: 5.0 mg/kg/injection, schedule: Q01DX010 (ip), vehicle: other).

With `S=P(N1CCOCC1)(N1CC1)N1CC1`, the T/C by setting is: (dose: 2.5 mg/kg/injection, schedule: Q01DX010 (ip), vehicle: saline) 104 % of control and 109 % of control; under setting [2], 100 % of control and 109 % of control; under setting [6], 100 % of control and 122 % of control; under setting [7], 86 % of control and 90 % of control.

`CCN(CC)CCNc1ccc(CO)c2sc3ccccc3c(=O)c12`: the T/C reads like this: (dose: 21.6 mg/kg/injection, schedule: Q01DX009 (ip), vehicle: water) 109 % of control; (dose: 25.2 mg/kg/injection, schedule: Q01DX009 (ip), vehicle: water) 120 % of control; (dose: 36.0 mg/kg/injection, schedule: Q01DX009 (ip), vehicle: water) 112 % of control; (dose: 114.0 mg/kg/injection, schedule: Q01DX009 (ip), vehicle: water) 90 % of control.

With `CO[C@H]1Nc2c(ccc(C)c2O)C(=O)N2C=C(/C=C/C(N)=O)C[C@@H]12`, the T/C was 113 % of control (dose: 151.0 micrograms/kg/injection, schedule: Q04DX003 (ip), vehicle: saline + alcohol) and 122 % of control (dose: 360.0 micrograms/kg/injection, schedule: Q04DX003 (ip), vehicle: saline + alcohol).

For the compound `CC1CN=C(c2ccc(NC(=O)c3cccc(C(=O)Nc4ccc(C5=NCC(C)N5)cc4)c3)cc2)N1` (configuration not stated), the T/C is 104 % of control under setting [8]; 117 % of control (dose: 18.0 mg/kg/injection, schedule: Q01DX010 (ip), vehicle: saline); 104 % of control (dose: 27.0 mg/kg/injection, schedule: Q01DX010 (ip), vehicle: saline); 108 % of control under setting [9].

With `N=C(N)c1ccc(Nc2ccc(C(=N)N)cc2)cc1`, the T/C is 106 % of control under setting [10]; 92 % of control and 106 % of control under setting [11]; 89 % of control and 106 % of control under setting [12]; 92 % of control and 113 % of control under setting [8].

As for `O=C(Nc1ccc(NC2=NCCN2)cc1)c1ccc(C(=O)Nc2ccc(NC3=NCCN3)cc2)cc1`, the T/C by setting is: (dose: 2.0 mg/kg/injection, schedule: Q01DX010 (ip), vehicle: saline) 121 % of control; (dose: 4.0 mg/kg/injection, schedule: Q01DX010 (ip), vehicle: saline) 192 % of control; under setting [13], 171 % of control and 211 % of control.

For the compound `c1ccc(CNc2ncnc3[nH]ncc23)cc1`, the T/C was 92 % of control and 100 % of control under setting [13]; 88 % of control and 96 % of control under setting [3]; 100 % of control under setting [4]; 92 % of control under setting [5].

In the case of `O=NN(CCCl)C(=O)NCCCl`, the T/C under setting [1] is 300 % of control; the T/C (dose: 12.5 mg/kg/injection, schedule: Q01DX010 (ip), vehicle: saline) is 188 % of control and 300 % of control; the T/C (dose: 13.0 mg/kg/injection, schedule: Q01DX001 (ip), vehicle: saline) is 151 % of control; the T/C (dose: 21.6 mg/kg/injection, schedule: Q01DX001 (ip), vehicle: saline) was 164 % of control; the T/C (dose: 36.0 mg/kg/injection, schedule: Q01DX001 (ip), vehicle: saline) was 212 % of control.

Take `CO[C@@]12[C@H](COC(N)=O)C3=C(C(=O)C(C)=C(N)C3=O)N1C[C@@H]1N[C@@H]12`: the T/C is 184 % of control (dose: 1.08 mg/kg/injection, schedule: Q04DX003 (ip), vehicle: saline); 221 % of control (dose: 1.8 mg/kg/injection, schedule: Q04DX003 (ip), vehicle: saline); 184 % of control (dose: 3.0 mg/kg/injection, schedule: Q04DX003 (ip), vehicle: saline); 124 % of control (dose: 5.0 mg/kg/injection, schedule: Q04DX003 (ip), vehicle: saline).

Take `Nc1ncnc2[nH]ncc12`: the T/C reads like this: under setting [10], 88 % of control; under setting [11], 88 % of control; under setting [12], 88 % of control and 103 % of control; under setting [8], 119 % of control.

For `C[C@@H]1C[C@@H]([C@H](O)CC2CC(=O)NC(=O)C2)C(=O)[C@@H](C)C1`, the T/C under setting [2] is 92 % of control and 108 % of control; the T/C under setting [6] was 100 % of control and 104 % of control; the T/C under setting [7] was 112 % of control and 116 % of control; the T/C under setting [9] was 120 % of control and 124 % of control.
